Columns and labels:
Assay in all cases: relative viability (nuclei count vs DMSO), 5 days (fraction); higher = more cells survive
201T = tested on: 201T
Outline: (§1)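 Relative viability was taken as the ratio of nuclei in treated wells to nuclei in vehicle wells. Lung cancer cell lines in 1536-well plates received compounds by pin tool one day after seeding, either one drug alone or a fixed anchor-drug dose plus five library-drug doses (not always all listed) in √10 steps. Nuclei were counted on 4× images after 5 days of treatment, and values are medians of duplicate plates.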

A-427 = tested on: A-427
Outline: as §1

COR-L23 = tested on: COR-L23
Outline: as §1

H3255 = tested on: H3255
Outline: as §1

HCC-44 = tested on: HCC-44
Outline: as §1

LCLC-103H = tested on: LCLC-103H
Outline: as §1

LCLC-97TM1 = tested on: LCLC-97TM1
Outline: as §1

LK-2 = tested on: LK-2
Outline: as §1

LU99A = tested on: LU99A
Outline: as §1

NCI-H1563 = tested on: NCI-H1563
Outline: as §1

NCI-H1650 = tested on: NCI-H1650
Outline: as §1

NCI-H1793 = tested on: NCI-H1793
Outline: as §1

NCI-H1944 = tested on: NCI-H1944
Outline: as §1

NCI-H2347 = tested on: NCI-H2347
Outline: as §1

NCI-H23 = tested on: NCI-H23
Outline: as §1

NCI-H460 = tested on: NCI-H460
Outline: as §1

NCI-H650 = tested on: NCI-H650
Outline: as §1

NCI-H838 = tested on: NCI-H838
Outline: as §1

PC-14 = tested on: PC-14
Outline: as §1

PC-3 [JPC-3] = tested on: PC-3 [JPC-3]
Outline: as §1

SW 1573 = tested on: SW 1573
Outline: as §1

SW 900 = tested on: SW 900
Outline: as §1

Compound: O=C(O)c1ccc(-c2c[nH]c3ncc(-c4ccccc4)cc23)cc1C1CCCC1 + Nc1nc2[nH]cc(CCc3ccc(C(=O)N[C@@H](CCC(=O)O)C(=O)O)cc3)c2c(=O)[nH]1 [Pemetrexed] (partner 0.2 µM)
- relative viability (201T; first compound 0.04 µM): 0.342
- relative viability (201T; first compound 0.1265 µM): 0.326
- relative viability (201T; first compound 0.4 µM): 0.357
- relative viability (201T; first compound 1.265 µM): 0.343
- relative viability (A-427; first compound 0.04 µM): 0.959
- relative viability (A-427; first compound 0.1265 µM): 1.06
- relative viability (A-427; first compound 0.4 µM): 0.943
- relative viability (A-427; first compound 1.265 µM): 0.843
- relative viability (COR-L23; first compound 0.04 µM): 0.191
- relative viability (COR-L23; first compound 0.1265 µM): 0.196
- relative viability (COR-L23; first compound 0.4 µM): 0.194
- relative viability (COR-L23; first compound 1.265 µM): 0.184
- relative viability (H3255; first compound 0.04 µM): 0.485
- relative viability (H3255; first compound 0.1265 µM): 0.58
- relative viability (H3255; first compound 0.4 µM): 0.622
- relative viability (H3255; first compound 1.265 µM): 0.582
- relative viability (HCC-44; first compound 0.04 µM): 0.654
- relative viability (HCC-44; first compound 0.1265 µM): 0.578
- relative viability (HCC-44; first compound 0.4 µM): 0.68
- relative viability (HCC-44; first compound 1.265 µM): 0.598
- relative viability (LCLC-103H; first compound 0.04 µM): 0.487
- relative viability (LCLC-103H; first compound 0.1265 µM): 0.463
- relative viability (LCLC-103H; first compound 0.4 µM): 0.495
- relative viability (LCLC-103H; first compound 1.265 µM): 0.481
- relative viability (LCLC-97TM1; first compound 0.04 µM): 0.196
- relative viability (LCLC-97TM1; first compound 0.1265 µM): 0.204
- relative viability (LCLC-97TM1; first compound 0.4 µM): 0.157
- relative viability (LCLC-97TM1; first compound 1.265 µM): 0.153
- relative viability (LK-2; first compound 0.04 µM): 0.172
- relative viability (LK-2; first compound 0.1265 µM): 0.344
- relative viability (LK-2; first compound 0.4 µM): 0.317
- relative viability (LK-2; first compound 1.265 µM): 0.276
- relative viability (LU99A; first compound 0.04 µM): 0.166
- relative viability (LU99A; first compound 0.1265 µM): 0.192
- relative viability (LU99A; first compound 0.4 µM): 0.187
- relative viability (LU99A; first compound 1.265 µM): 0.202
- relative viability (NCI-H1563; first compound 0.04 µM): 0.698
- relative viability (NCI-H1563; first compound 0.1265 µM): 0.948
- relative viability (NCI-H1563; first compound 0.4 µM): 0.789
- relative viability (NCI-H1563; first compound 1.265 µM): 0.892
- relative viability (NCI-H1650; first compound 0.04 µM): 0.352
- relative viability (NCI-H1650; first compound 0.1265 µM): 0.466
- relative viability (NCI-H1650; first compound 0.4 µM): 0.383
- relative viability (NCI-H1650; first compound 1.265 µM): 0.33
- relative viability (NCI-H1793; first compound 0.04 µM): 0.83
- relative viability (NCI-H1793; first compound 0.1265 µM): 1.19
- relative viability (NCI-H1793; first compound 0.4 µM): 0.865
- relative viability (NCI-H1793; first compound 1.265 µM): 0.882
- relative viability (NCI-H1944; first compound 0.04 µM): 0.692
- relative viability (NCI-H1944; first compound 0.1265 µM): 0.799
- relative viability (NCI-H1944; first compound 0.4 µM): 0.69
- relative viability (NCI-H1944; first compound 1.265 µM): 0.565
- relative viability (NCI-H2347; first compound 0.04 µM): 0.435
- relative viability (NCI-H2347; first compound 0.1265 µM): 0.453
- relative viability (NCI-H2347; first compound 0.4 µM): 0.454
- relative viability (NCI-H2347; first compound 1.265 µM): 0.398
- relative viability (NCI-H23; first compound 0.04 µM): 0.756
- relative viability (NCI-H23; first compound 0.1265 µM): 0.885
- relative viability (NCI-H23; first compound 0.4 µM): 0.683
- relative viability (NCI-H23; first compound 1.265 µM): 0.66
- relative viability (NCI-H460; first compound 0.04 µM): 0.0611
- relative viability (NCI-H460; first compound 0.1265 µM): 0.0579
- relative viability (NCI-H460; first compound 0.4 µM): 0.0617
- relative viability (NCI-H460; first compound 1.265 µM): 0.0609
- relative viability (NCI-H650; first compound 0.04 µM): 0.941
- relative viability (NCI-H650; first compound 0.1265 µM): 0.975
- relative viability (NCI-H650; first compound 0.4 µM): 0.873
- relative viability (NCI-H650; first compound 1.265 µM): 0.782
- relative viability (NCI-H838; first compound 0.04 µM): 0.25
- relative viability (NCI-H838; first compound 0.1265 µM): 0.265
- relative viability (NCI-H838; first compound 0.4 µM): 0.253
- relative viability (NCI-H838; first compound 1.265 µM): 0.227
- relative viability (PC-14; first compound 0.04 µM): 0.135
- relative viability (PC-14; first compound 0.1265 µM): 0.143
- relative viability (PC-14; first compound 0.4 µM): 0.145
- relative viability (PC-14; first compound 1.265 µM): 0.125
- relative viability (PC-3 [JPC-3]; first compound 0.04 µM): 1.05
- relative viability (PC-3 [JPC-3]; first compound 0.1265 µM): 1.18
- relative viability (PC-3 [JPC-3]; first compound 0.4 µM): 1.1
- relative viability (PC-3 [JPC-3]; first compound 1.265 µM): 1.03
- relative viability (SW 1573; first compound 0.04 µM): 0.808
- relative viability (SW 1573; first compound 0.1265 µM): 0.762
- relative viability (SW 1573; first compound 0.4 µM): 0.779
- relative viability (SW 1573; first compound 1.265 µM): 0.63
- relative viability (SW 900; first compound 0.04 µM): 0.476
- relative viability (SW 900; first compound 0.1265 µM): 0.471
- relative viability (SW 900; first compound 0.4 µM): 0.451
- relative viability (SW 900; first compound 1.265 µM): 0.473
